Test results taken from patent US20060189546A1, “Compounds for treating autoimmune and demyelinating diseases” (priority 2005, published 2006).

Tested on: colorectal cancer cell lines (HT29 & HCT116)
Experiment: Microarray gene expression, cells grown with Symadex at the GI50 concentration
Format: cell-based, human
Description: Two colorectal cancer cell lines (HT29 & HCT116) were chosen for study, whose behavior as rapidly proliferating invasive cells could be generalized to many other such cell types from different tissue origins. The two lines were immortalized colon carcinomas. Their gene expression patterns are known to mimic the behavior of neuro-enteric cells and therefore provide an appropriate simulation of the kinds of regulatory patterns that would be found in cells of similar epithelial or endothelial origin. Cells with these ontological roots are also suitable models for the kinds of autoimmune and inflammatory susceptibilities that are common in tissues of neuroenteric origin, such as those in which inflammatory bowel disease would present itself.
Frozen cell pellets were lysed in triplicate and total RNA isolated by purification over spin columns (all reagents from Ambion). After QC acceptance for purity, total RNA was converted to cRNA by linear amplification and 10 μg samples were applied to CodeLink Human Whole Genome Bioarrays (GE Healthcare and GenUs Biosystems).
Arrays were processed in triplicate and comparisons made after robust statistical analysis of replicate variability. […] False discovery rates and representation in standardized gene ontologies/pathways were then determined by filtering the “fold” changes in expression with open access software packages, EASE and GoMiner, and with Pathways Analysis (Ingenuity Systems). Functional annotations were then explored further in the MedMiner literature search environment.
A listing of these is shown in Table 3, in which the first column data presents the fold change against control, the second column cites the gene symbol, the third column cites the Genbank Accession, and the fourth column provides an abridged description of the gene's function.

CCN(CC)CCNc1ccc2ncn3c4ccc(O)cc4c(=O)c1c23 [Symadex™, 5-[[(diethylamino)ethyl]amino]-8-hydroxyimidazo[4,5,1-de]-acridine-6-one]
Mean fold change over control: GGH (NM_003878): −1.96
Mean fold change over control: MPZL1 (NM_003953): −2.04
Mean fold change over control: C3AR1 (NM_004054): −15.52
Mean fold change over control: EIF2S1 (NM_004094): −2.13
Mean fold change over control: FEN1 (NM_004111): −2.87
Mean fold change over control: SLC1A2 (NM_004171): −11.21
Mean fold change over control: SLC9A3 (NM_004174): −15.57
Mean fold change over control: SNRPD3 (NM_004175): −2.31
Mean fold change over control: CDKL1 (NM_004196): −8.14
Mean fold change over control: PTTG1 (NM_004219): −2.43
Mean fold change over control: SLC22A13 (NM_004256): −11.51
Mean fold change over control: BAG2 (NM_004282): −2.22
Mean fold change over control: BAD (NM_004322): −2.08
Mean fold change over control: ERH (NM_004450): −3.39
Mean fold change over control: KCNQ2 (NM_004518): −24.13
Mean fold change over control: MYBPC2 (NM_004533): −21.22
Mean fold change over control: SPOCK (NM_004598): −6.57
Mean fold change over control: NMI (NM_004688): −2.41
Mean fold change over control: CCNB2 (NM_004701): −2.51
Mean fold change over control: PDCD5 (NM_004708): −2.21
Mean fold change over control: ZW10 (NM_004724): −2.31
Mean fold change over control: DDX1 (NM_004939): −2.09
Mean fold change over control: IBSP (NM_004967): −58.56
Mean fold change over control: CCL23 (NM_005064): −12.99
Mean fold change over control: COX6A2 (NM_005205): −23.19
Mean fold change over control: GJB5 (NM_005268): −62.09
Mean fold change over control: GPR15 (NM_005290): −80.43
Mean fold change over control: GPR24 (NM_005297): −13.80
Mean fold change over control: SULT1E1 (NM_005420): −10.91
Mean fold change over control: RQCD1 (NM_005444): −2.38
Mean fold change over control: ZNF265 (NM_005455): −2.03
Mean fold change over control: STMN1 (NM_005563): −2.41
Mean fold change over control: LCP2 (NM_005565): −11.85
Mean fold change over control: VDAC3 (NM_005662): −2.22
Mean fold change over control: D8S2298E (NM_005671): −1.88
Mean fold change over control: SCAMP3 (NM_005698): −2.00
Mean fold change over control: THOC4 (NM_005782): −3.41
Mean fold change over control: KLRG1 (NM_005810): −24.24
Mean fold change over control: DSCR1L1 (NM_005822): −9.75
Mean fold change over control: MSLN (NM_005823): −17.46
Mean fold change over control: SLC35B1 (NM_005827): −2.23
Mean fold change over control: CD5L (NM_005894): −13.25
Mean fold change over control: MCM6 (NM_005915): −1.97
Mean fold change over control: MCM7 (NM_005916): −2.69
Mean fold change over control: CD164 (NM_006016): −2.14
Mean fold change over control: DLEU2 (NM_006021): −3.39
Mean fold change over control: C10ORF7 (NM_006023): −2.11
Mean fold change over control: NFATC1 (NM_006162): −16.69
Mean fold change over control: TIMM23 (NM_006327): −2.02
Mean fold change over control: PPIH (NM_006347): −2.49
Mean fold change over control: SYNCRIP (NM_006372): −2.23
Mean fold change over control: SSSCA1 (NM_006396): −2.20
Mean fold change over control: RNASEH2A (NM_006397): −2.31
Mean fold change over control: SIVA (NM_006427): −2.78
Mean fold change over control: USP16 (NM_006447): −66.26
Mean fold change over control: PAICS (NM_006452): −2.03
Mean fold change over control: RPC62 (NM_006468): −2.22
Mean fold change over control: PIR51 (NM_006479): −3.73
Mean fold change over control: FARS1 (NM_006567): −2.11
Mean fold change over control: RBBP9 (NM_006606): −8.81
Mean fold change over control: NMU (NM_006681): −2.12
Mean fold change over control: U2AF1 (NM_006758): −1.99
Mean fold change over control: PRSS21 (NM_006799): −22.21
Mean fold change over control: KIF2C (NM_006845): −2.52
Mean fold change over control: CENTA1 (NM_006869): −19.89
Mean fold change over control: TRH (NM_007117): −8.14
Mean fold change over control: ZNF258 (NM_007167): −2.66
Mean fold change over control: DUSP12 (NM_007240): −2.18
Mean fold change over control: HSGT1 (NM_007265): −2.08
Mean fold change over control: DTYMK (NM_012145): −3.07
Mean fold change over control: TPSD1 (NM_012217): −13.71
Mean fold change over control: TFEC (NM_012252): −20.30
Mean fold change over control: RAD54B (NM_012415): −2.04
Mean fold change over control: SPO11 (NM_012444): −14.75
Mean fold change over control: TIMM10 (NM_012456): −2.23
Mean fold change over control: UMPK (NM_012474): −1.92
Mean fold change over control: HMMR (NM_012484): −2.94
Mean fold change over control: DNAJD1 (NM_013238): −2.24
Mean fold change over control: TAC3 (NM_013251): −12.26
Mean fold change over control: RACGAP1 (NM_013277): −2.31
Mean fold change over control: ALG5 (NM_013338): −2.71
Mean fold change over control: ANAPC4 (NM_013367): −1.92
Mean fold change over control: NRG1 (NM_013956): −17.54
Mean fold change over control: SLC27A6 (NM_014031): −18.72
Mean fold change over control: MRPL13 (NM_014078): −2.16
Mean fold change over control: TMEM4 (NM_014255): −2.21
Mean fold change over control: PLK4 (NM_014264): −2.39
Mean fold change over control: ITGB3BP (NM_014288): −2.73
Mean fold change over control: SULT4A1 (NM_014351): −293.18
Mean fold change over control: ZNRD1 (NM_014596): −2.17
Mean fold change over control: MEA (NM_014623): −2.39
Mean fold change over control: DCLRE1A (NM_014881): −3.14
Mean fold change over control: KIAA0089 (NM_015141): −7.23
Mean fold change over control: RCOR1 (NM_015156): −7.09
Mean fold change over control: ARL6IP (NM_015161): −2.29
Mean fold change over control: EGFL6 (NM_015507): −28.71
Mean fold change over control: GMNN (NM_015895): −2.81
Mean fold change over control: MRPL11 (NM_016050): −2.97
Mean fold change over control: MYO15A (NM_016239): −50.59
Mean fold change over control: DNAJB11 (NM_016306): −2.15
Mean fold change over control: POLR3K (NM_016310): −2.24
Mean fold change over control: NR2E3 (NM_016346): −14.89
Mean fold change over control: WWOX (NM_016373): −2.07
Mean fold change over control: RNF141 (NM_016422): −2.29
Mean fold change over control: POLA (NM_016937): −1.88
Mean fold change over control: PDE11A (NM_016953): −16.85
Mean fold change over control: MRPL39 (NM_017446): −2.20
Mean fold change over control: LIMS2 (NM_017980): −57.61
Mean fold change over control: FAIM (NM_018147): −3.32
Mean fold change over control: LPAAT-E (NM_018361, first entry): −11.94
Mean fold change over control: LPAAT-E (NM_018361, second entry): −2.40
Mean fold change over control: SIAT7A (NM_018414): −11.76
Mean fold change over control: LRP1B (NM_018557): −15.01
Mean fold change over control: TCP11 (NM_018679): −9.82
Mean fold change over control: BCAP29 (NM_018844): −2.17
Mean fold change over control: GDAP1 (NM_018972): −2.44
Mean fold change over control: ROBO4 (NM_019055): −11.95
Mean fold change over control: POLE4 (NM_019896): −2.04
Mean fold change over control: SARA1 (NM_020150): −2.14
Mean fold change over control: RAD18 (NM_020165): −2.28
Mean fold change over control: MRPL1 (NM_020236): −2.02
Mean fold change over control: NUP107 (NM_020401): −2.68
Mean fold change over control: KCNJ12 (NM_021012): −15.93
Mean fold change over control: MRPL23 (NM_021134): −2.29
Mean fold change over control: ATP2B3 (NM_021949): −9.43
Mean fold change over control: NUCKS (NM_022731): −2.02
Mean fold change over control: MIS12 (NM_024039): −2.20
Mean fold change over control: SUV39H2 (NM_024670): −2.33
Mean fold change over control: TXNDC (NM_030755): −2.13
Mean fold change over control: PHAX (NM_032177): −2.17
Mean fold change over control: PCDH7 (NM_032457): −19.65
Mean fold change over control: GPR54 (NM_032551): −2.56
Mean fold change over control: PHF5A (NM_032758): −2.95
Mean fold change over control: SYNE1 (NM_033071): −1481.77
Mean fold change over control: SLC7A13 (NM_138817): −27.75
Mean fold change over control: BBS2 (T26496): −23.65
number of down-regulated genes significantly represented in both cell types (array of 55,000 gene fragment accessions): 271
